In brackets after ≈: the same amount, converted by molar mass.
Legend:
[1] = biological target: poly [ADP-ribose] polymerase 1 (PARP1) (Homo sapiens, UniProt P09874); settings: observed in several studies; cited from earlier work
[2] = tissues including brain and cerebrospinal fluid (CSF); cited from earlier work
[3] = Solubility of iniparib in purified water; type: physicochemical
[4] = tested on: cancer cells, including drug resistant cell lines; settings: cited from earlier work

poly [ADP-ribose] polymerase 1 (PARP1), sequence (P09874 whole entry, species assumed): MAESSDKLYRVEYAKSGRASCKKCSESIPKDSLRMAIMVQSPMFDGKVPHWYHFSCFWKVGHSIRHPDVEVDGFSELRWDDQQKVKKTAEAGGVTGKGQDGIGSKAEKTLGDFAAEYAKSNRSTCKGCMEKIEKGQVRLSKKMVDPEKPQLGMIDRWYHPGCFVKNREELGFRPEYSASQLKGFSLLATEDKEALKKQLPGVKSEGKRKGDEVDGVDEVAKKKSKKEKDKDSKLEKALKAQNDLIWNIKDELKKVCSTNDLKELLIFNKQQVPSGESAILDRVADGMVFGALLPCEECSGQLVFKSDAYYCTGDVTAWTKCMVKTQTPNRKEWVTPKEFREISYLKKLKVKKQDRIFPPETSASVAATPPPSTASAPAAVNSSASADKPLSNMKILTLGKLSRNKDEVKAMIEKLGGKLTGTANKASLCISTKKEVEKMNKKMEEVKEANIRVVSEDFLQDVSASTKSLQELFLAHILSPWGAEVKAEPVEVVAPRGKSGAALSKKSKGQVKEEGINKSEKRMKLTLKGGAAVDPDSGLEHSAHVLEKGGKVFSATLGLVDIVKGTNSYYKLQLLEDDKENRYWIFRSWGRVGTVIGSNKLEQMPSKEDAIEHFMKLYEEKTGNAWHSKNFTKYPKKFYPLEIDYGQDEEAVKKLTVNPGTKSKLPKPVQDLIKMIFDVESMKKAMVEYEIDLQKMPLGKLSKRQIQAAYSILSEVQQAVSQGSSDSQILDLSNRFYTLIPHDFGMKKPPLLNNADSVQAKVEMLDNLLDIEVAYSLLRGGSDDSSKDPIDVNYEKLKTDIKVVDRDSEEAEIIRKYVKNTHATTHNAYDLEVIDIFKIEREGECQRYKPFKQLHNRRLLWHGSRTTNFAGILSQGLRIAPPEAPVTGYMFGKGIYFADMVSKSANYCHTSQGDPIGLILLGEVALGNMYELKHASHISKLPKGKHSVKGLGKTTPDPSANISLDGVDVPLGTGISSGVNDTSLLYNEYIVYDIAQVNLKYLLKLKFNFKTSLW

For NC(=O)c1ccc(I)c([N+](=O)[O-])c1 [Iniparib, 4-iodo-3-nitrobenzamide], the “potency against PARP1” value [1] is listed as “low potency”, the distribution into tissues [2] is listed as “distributes rapidly and widely into tissues, including the brain and cerebrospinal fluid (CSF)” and the solubility [3] is listed as roughly 182 µg/mL (≈ 623 µM). The “activity against cancer cells in vitro” value [4] was “active against a broad range of cancer cells in vitro”.

— patent publication US11628144B2, “Iniparib formulations and uses thereof” (TriAct Therapeutics, Inc., priority 2017, dated 2023)
